In ChEMBL document CHEMBL1134491, “QSAR and molecular modeling studies of baclofen analogues as GABA(B) agonists. Insights into the role of the aromatic moiety in GABA(B) binding and activation” (J Med Chem, 2001):

Test: Inhibitory concentration against binding of (R)-(-)-[3H]-baclofen to GABAB sites on rat whole brain synaptic membrane

| SMILES | IC50 [µM] |
| --- | --- |
| Cc1ccc([C@H](CN)CC(=O)O)s1 | 134 |
| NC[C@H](CC(=O)O)c1cccs1 | 9.72 |
| NC[C@H](CC(=O)O)c1cccc(Cl)c1 | 20 |
| NC[C@H](CC(=O)O)c1ccc(F)cc1 | 0.8 |
| NC[C@H](CC(=O)O)c1ccccc1Cl | 0.8 |
| NC[C@H](CC(=O)O)c1ccc(Cl)s1 | 0.61 |
| Cc1ccsc1[C@H](CN)CC(=O)O | 124 |
| NC[C@H](CC(=O)O)c1ccsc1 | 20.9 |
| NC[C@H](CC(=O)O)c1ccco1 | > 100 |
| NC[C@H](CC(=O)O)c1cc(Cl)cs1 | 45.3 |
| Cc1ccc([C@H](CN)CC(=O)O)o1 | > 100 |
| NC[C@H](CC(=O)O)c1ccc(Br)s1 | 1.86 |
| NC[C@H](CC(=O)O)c1ccc(O)cc1 | > 100 |
| NC[C@H](CC(=O)O)c1cc(Br)cs1 | 39.1 |
